Drawing on PubChem BioAssay (NCI), this text covers GI50 and TGI for ten molecules.

Test systems include MOLT-4 leukemia; RPMI-8226 leukemia; UO-31 renal; BT-549 breast; HOP-92 NSCLC; NCI-H522 lung; MALME-3M melanoma; MCF7 breast.
Common to all, as to assay: inhibition of tumour cell growth, NCI panel, 48 h

Molecules are shown by their SMILES. Values joined by “and” are separate entries in the source; they are usually repeats but may differ in a detail not shown here. Identical values can stand only once.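 Method: 48-hour compound exposure of cells in 96-well plates, five concentrations, linear interpolation of endpoints. Abbreviation: GI50, concentration required for 50% inhibition of growth. TGI marks complete inhibition of growth.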

Turning to `CCOc1cc(C(C)(C)C)ccc1C1=N[C@H](c2ccc(Cl)cc2)[C@H](c2ccc(Cl)cc2)N1C(=O)N1CCN(CC#Cc2cccc3c2CN([C@@H]2CCC(=O)NC2=O)C3=O)CC1`, the GI50 was 19 nM in the assay with MOLT-4 leukemia; 2300 nM with RPMI-8226 leukemia; 236 nM in the assay on UO-31 renal; 0.317 µM in the assay on BT-549 breast; 0.0372 µM with HOP-92 NSCLC; 6.59 µM with NCI-H522 lung. The GI50 in the assay on MALME-3M melanoma was 0.0331 µM; with MCF7 breast, 71.2 nM. Besides, the TGI in the assay on MOLT-4 leukemia is over 100 µM; with RPMI-8226 leukemia, over 100 µM; in the assay on UO-31 renal, 2 µM; in the assay with BT-549 breast, 19.8 µM; with HOP-92 NSCLC, 8.51 µM; in the assay on NCI-H522 lung, over 77.3 µM. Besides, the TGI in the assay on MALME-3M melanoma was 0.778 µM; in the assay on MCF7 breast, over 100 µM.
With `Oc1ccc2ccccc2c1N=Nc1cccc2ccccc12`, the TGI in the assay on MOLT-4 leukemia, in the assay with RPMI-8226 leukemia, in the assay with UO-31 renal, with BT-549 breast, with HOP-92 NSCLC and in the assay on NCI-H522 lung was over 100 µM throughout. Also, the TGI in the assay on MALME-3M melanoma and in the assay with MCF7 breast was over 100 µM each time.
Regarding `Cc1cn(C2CC(OC(=O)c3ccc(Cl)cc3)C(COC(=O)c3ccc(Cl)cc3)O2)c(=O)[nH]c1=O` (stereo not given), the TGI with MOLT-4 leukemia, with RPMI-8226 leukemia, with UO-31 renal, in the assay on BT-549 breast, in the assay with HOP-92 NSCLC and in the assay with NCI-H522 lung was over 100 µM each time. Further, the TGI in the assay on MALME-3M melanoma and in the assay with MCF7 breast was over 100 µM in each case.
Take `CCCOC(=O)N[C@H]1CCc2c(Cl)c(OC)c(OC)c(OC)c2-c2ccc(SC)c(=O)cc21`: the GI50 in the assay on MOLT-4 leukemia is under 10 nM; with RPMI-8226 leukemia, under 10 nM; in the assay with UO-31 renal, 74.7 nM; in the assay on BT-549 breast it was under 0.01 µM; in the assay on HOP-92 NSCLC, under 0.0119 µM; in the assay with NCI-H522 lung it was under 0.01 µM. Also, the GI50 in the assay with MALME-3M melanoma was under 0.01 µM; in the assay on MCF7 breast, under 10 nM. In addition, the TGI in the assay with MOLT-4 leukemia came to 23.6 µM; in the assay on RPMI-8226 leukemia, 7.73 µM; with UO-31 renal, 27.9 µM; in the assay with BT-549 breast, 6.01 µM; in the assay on HOP-92 NSCLC, 4.65 µM; in the assay with NCI-H522 lung it was 0.271 µM. The TGI in the assay on MALME-3M melanoma turned out to be 17.1 µM; with MCF7 breast, 13.1 µM.
Turning to `Cc1nnc(-c2ccc(C)c(-c3ccc(C(=O)Nc4cccc(C#N)c4)cc3)c2)o1`, the GI50 is over 25000 nM with MOLT-4 leukemia; over 25000 nM in the assay with RPMI-8226 leukemia; over 25000 nM in the assay with UO-31 renal; over 25 µM in the assay with BT-549 breast; over 25 µM in the assay with HOP-92 NSCLC; over 25 µM in the assay on NCI-H522 lung. Further, the GI50 with MALME-3M melanoma is over 25 µM; with MCF7 breast it was over 25000 nM. In addition, the TGI with MOLT-4 leukemia, in the assay with RPMI-8226 leukemia, with UO-31 renal, with BT-549 breast, in the assay on HOP-92 NSCLC and in the assay with NCI-H522 lung was over 25 µM in each case. Also, the TGI with MALME-3M melanoma and in the assay on MCF7 breast was over 25 µM each time.
In the case of `O=C1C(=O)c2ccccc2C(O)=C1C(C1=C(O)c2ccccc2C(=O)C1=O)c1ccc(Cl)cc1`, the TGI in the assay on MOLT-4 leukemia was 19.3 µM; in the assay on RPMI-8226 leukemia, over 39.2 µM; with UO-31 renal, 24.5 µM; in the assay with BT-549 breast, 32.7 µM; with HOP-92 NSCLC, 44.1 µM; with NCI-H522 lung, 27.3 µM. Also, the values for the TGI in the assay on MALME-3M melanoma and in the assay with MCF7 breast were 12 µM and 11.4 µM, respectively.
On to `CCOc1cccc(/C=N/NC(=O)c2cccc(Nc3ccnc(C(F)(F)F)c3)c2)c1O`, for which the GI50 with MOLT-4 leukemia is 232 nM; in the assay on RPMI-8226 leukemia it was 2160 nM; in the assay with UO-31 renal, 717 nM; with BT-549 breast, 1.44 µM; in the assay with HOP-92 NSCLC it was 5.21 µM; in the assay on NCI-H522 lung, 4.54 µM. The GI50 with MALME-3M melanoma is 1.82 µM; in the assay on MCF7 breast, 945 nM. For the same molecule, the TGI with MOLT-4 leukemia was 2.08 µM; with RPMI-8226 leukemia it was over 100 µM; in the assay on UO-31 renal it was 26.2 µM; with BT-549 breast it was 36.5 µM; in the assay with HOP-92 NSCLC it was over 100 µM; with NCI-H522 lung it was 32.5 µM. For the same molecule, the TGI with MALME-3M melanoma turned out to be 18.9 µM; in the assay with MCF7 breast, 21.1 µM.
Consider `CCN(CC)CCCC(CCl)Nc1ccnc2cc(Cl)ccc12` (stereo not given), for which the TGI was 81.1 µM and > 34.3 µM in the assay with MOLT-4 leukemia; 34.4 µM in the assay with RPMI-8226 leukemia; 37 µM and > 100 µM in the assay on UO-31 renal; 60.2 µM and 49.1 µM in the assay with BT-549 breast; 36.6 µM and 42.1 µM in the assay with HOP-92 NSCLC; 67.8 µM and > 73.6 µM with NCI-H522 lung. The TGI in the assay with MALME-3M melanoma was 21.1 µM and 20.1 µM; in the assay with MCF7 breast, 75.2 µM and > 87.2 µM. Moreover, the GI50 in the assay with RPMI-8226 leukemia was 12200 nM; with UO-31 renal, 16600 nM and 21500 nM; in the assay on BT-549 breast, 22.4 µM and 15.2 µM; in the assay on HOP-92 NSCLC, 11.2 µM and 14.5 µM; with NCI-H522 lung it was 25.7 µM and 25.1 µM; in the assay with MALME-3M melanoma, 8.53 µM and 4.95 µM. Besides, the GI50 with MCF7 breast is 23900 nM and 27900 nM.
In the case of `CCN1C(=O)/C(=C/c2c(Cl)[nH]c3cc(C)c(OC)cc23)c2ccccc21`, the GI50 is 4360 nM with MOLT-4 leukemia; 2700 nM in the assay on RPMI-8226 leukemia; 2870 nM in the assay on UO-31 renal; 0.5 µM with BT-549 breast; 12.8 µM in the assay with HOP-92 NSCLC; 0.823 µM in the assay on NCI-H522 lung. Besides, the values for the GI50 in the assay on MALME-3M melanoma and in the assay with MCF7 breast were 14.9 µM and 409 nM, respectively. The TGI was 35.2 µM with MOLT-4 leukemia; 24.1 µM with RPMI-8226 leukemia; over 100 µM with UO-31 renal; 6.31 µM with BT-549 breast; 63.4 µM in the assay with HOP-92 NSCLC; 6.58 µM with NCI-H522 lung. The TGI with MALME-3M melanoma was 70.6 µM; in the assay with MCF7 breast, over 100 µM.
For `Cc1cn(-c2cc(NC(=O)c3cccc(C#Cc4cccc5[nH]nc(N)c45)c3)cc(C(F)(F)F)c2)cn1`, the GI50 is 3840 nM in the assay with MOLT-4 leukemia; 4540 nM with RPMI-8226 leukemia; 2790 nM in the assay on UO-31 renal; 5.21 µM in the assay with BT-549 breast; 2.67 µM in the assay on HOP-92 NSCLC; 5.48 µM in the assay with NCI-H522 lung. In addition, the results for the GI50 in the assay on MALME-3M melanoma and in the assay with MCF7 breast were 1.81 µM and 3600 nM, respectively. Besides, the TGI in the assay with MOLT-4 leukemia is over 100 µM; in the assay with RPMI-8226 leukemia, over 100 µM; with UO-31 renal, 26.5 µM; in the assay on BT-549 breast, 80.4 µM; in the assay with HOP-92 NSCLC it was 9.75 µM; in the assay with NCI-H522 lung, 49 µM. Also, the TGI with MALME-3M melanoma is 10.9 µM; in the assay on MCF7 breast it was over 100 µM.
